Assay results: ChEMBL document CHEMBL1255549 (Bioorg Med Chem Lett, 2010)

Molecular target: Maltase-glucoamylase (Homo sapiens, UniProt O43451)
Assay: Inhibition of human recombinant N-terminal domain of maltase-glucoamylase after 60 mins by glucose oxidase assay

Maltase-glucoamylase, sequence (O43451 whole entry, the tested form may be a part): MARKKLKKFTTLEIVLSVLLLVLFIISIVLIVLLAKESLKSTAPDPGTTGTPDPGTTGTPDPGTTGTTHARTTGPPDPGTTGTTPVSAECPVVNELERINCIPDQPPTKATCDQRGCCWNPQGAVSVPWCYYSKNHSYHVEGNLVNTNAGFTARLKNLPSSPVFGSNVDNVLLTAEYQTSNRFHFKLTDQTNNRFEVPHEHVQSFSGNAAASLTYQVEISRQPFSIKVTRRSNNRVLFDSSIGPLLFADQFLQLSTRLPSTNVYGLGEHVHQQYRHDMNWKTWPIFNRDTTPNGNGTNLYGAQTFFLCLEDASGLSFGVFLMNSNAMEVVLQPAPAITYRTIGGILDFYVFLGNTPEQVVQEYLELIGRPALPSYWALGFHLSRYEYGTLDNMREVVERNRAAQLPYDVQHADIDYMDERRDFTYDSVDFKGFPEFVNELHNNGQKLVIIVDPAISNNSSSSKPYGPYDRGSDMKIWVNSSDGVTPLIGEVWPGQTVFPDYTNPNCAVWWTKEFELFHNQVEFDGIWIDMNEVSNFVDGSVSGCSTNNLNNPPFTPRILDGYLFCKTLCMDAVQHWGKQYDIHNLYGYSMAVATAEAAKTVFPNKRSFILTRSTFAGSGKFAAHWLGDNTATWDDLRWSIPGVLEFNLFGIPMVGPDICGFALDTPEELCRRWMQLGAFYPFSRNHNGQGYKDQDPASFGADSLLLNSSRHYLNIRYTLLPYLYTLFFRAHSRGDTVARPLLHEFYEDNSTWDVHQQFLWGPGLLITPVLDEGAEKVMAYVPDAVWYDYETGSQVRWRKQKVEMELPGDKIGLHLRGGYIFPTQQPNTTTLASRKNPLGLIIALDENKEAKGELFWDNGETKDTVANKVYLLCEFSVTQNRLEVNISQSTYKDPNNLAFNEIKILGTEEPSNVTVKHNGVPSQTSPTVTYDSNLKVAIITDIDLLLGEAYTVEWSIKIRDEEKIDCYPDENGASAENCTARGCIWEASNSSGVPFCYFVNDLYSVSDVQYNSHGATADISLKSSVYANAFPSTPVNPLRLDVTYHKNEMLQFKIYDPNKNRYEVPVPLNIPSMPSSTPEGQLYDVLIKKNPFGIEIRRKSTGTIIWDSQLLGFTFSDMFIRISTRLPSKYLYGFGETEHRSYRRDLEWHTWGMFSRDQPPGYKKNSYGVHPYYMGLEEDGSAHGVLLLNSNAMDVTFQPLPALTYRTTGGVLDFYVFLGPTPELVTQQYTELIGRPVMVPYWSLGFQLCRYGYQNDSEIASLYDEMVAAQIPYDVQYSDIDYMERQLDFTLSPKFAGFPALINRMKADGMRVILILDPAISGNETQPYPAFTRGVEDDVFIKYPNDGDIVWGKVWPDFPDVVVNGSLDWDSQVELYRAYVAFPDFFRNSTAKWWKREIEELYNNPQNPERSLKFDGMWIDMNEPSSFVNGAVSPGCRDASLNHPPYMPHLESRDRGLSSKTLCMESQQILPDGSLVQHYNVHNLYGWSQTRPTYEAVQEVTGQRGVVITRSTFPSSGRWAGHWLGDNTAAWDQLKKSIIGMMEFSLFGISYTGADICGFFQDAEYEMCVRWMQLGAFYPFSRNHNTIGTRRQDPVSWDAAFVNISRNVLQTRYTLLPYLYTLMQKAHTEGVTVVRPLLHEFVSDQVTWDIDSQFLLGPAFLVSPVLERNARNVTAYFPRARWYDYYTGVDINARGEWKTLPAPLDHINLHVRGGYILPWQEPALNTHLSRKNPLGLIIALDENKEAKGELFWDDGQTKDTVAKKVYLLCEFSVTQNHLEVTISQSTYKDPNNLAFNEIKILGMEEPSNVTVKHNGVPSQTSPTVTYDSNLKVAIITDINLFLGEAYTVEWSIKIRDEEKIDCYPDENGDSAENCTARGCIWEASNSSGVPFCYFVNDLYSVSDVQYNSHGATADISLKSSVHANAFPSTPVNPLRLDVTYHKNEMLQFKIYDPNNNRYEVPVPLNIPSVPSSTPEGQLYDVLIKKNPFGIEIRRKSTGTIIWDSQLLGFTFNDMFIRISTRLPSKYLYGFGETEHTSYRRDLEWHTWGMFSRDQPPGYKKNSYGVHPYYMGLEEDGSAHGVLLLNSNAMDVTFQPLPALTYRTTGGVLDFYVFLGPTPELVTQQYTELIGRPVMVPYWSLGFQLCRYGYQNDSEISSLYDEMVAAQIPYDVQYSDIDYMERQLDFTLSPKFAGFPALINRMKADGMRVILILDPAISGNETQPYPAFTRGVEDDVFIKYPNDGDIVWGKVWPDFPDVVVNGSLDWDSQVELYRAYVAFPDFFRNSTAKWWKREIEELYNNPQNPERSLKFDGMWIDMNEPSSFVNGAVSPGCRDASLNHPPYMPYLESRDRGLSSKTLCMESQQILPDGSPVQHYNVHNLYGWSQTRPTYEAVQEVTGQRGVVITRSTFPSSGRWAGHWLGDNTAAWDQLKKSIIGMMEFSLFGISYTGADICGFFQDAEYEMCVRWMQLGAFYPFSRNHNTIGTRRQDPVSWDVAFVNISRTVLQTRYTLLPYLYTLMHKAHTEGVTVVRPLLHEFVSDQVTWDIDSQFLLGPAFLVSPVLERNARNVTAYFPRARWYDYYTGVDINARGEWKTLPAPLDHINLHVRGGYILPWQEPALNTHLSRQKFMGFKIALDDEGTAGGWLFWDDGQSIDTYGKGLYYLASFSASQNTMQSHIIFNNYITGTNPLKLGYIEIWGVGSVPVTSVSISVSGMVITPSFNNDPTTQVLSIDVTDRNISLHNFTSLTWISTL

Ki: 500 nM
SMILES: CO[C@@H]([C@H](O)[C@@H](O)CO)[C@H](O)C[S@+]1C[C@@H](O)[C@H](O)[C@H]1CO
